Test results reported in the supplement of paper PMC4932681.

Key:
Assay in all cases: viability inhibition at highest dose (% inhibition); higher = more growth inhibition
[1] = system: BT-474; conditions: 72 h
Description: (§1)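 Percent inhibition of viability (CellTiter-Glo, 72 h) at the highest tested concentration (D5), normalised to DMSO (0%) and 100 µM benzethonium chloride (100%). Resistant lines and the 'in 1µM tamoxifen' arms were tested in 1 µM 4-OH-tamoxifen.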

[2] = system: T-47D Tam1; conditions: 4-OH-tamoxifen in medium 1 µM; 72 h
Description: as §1

[3] = system: BT-474 Tam1; conditions: 4-OH-tamoxifen in medium 1 µM; 72 h
Description: as §1

[4] = system: ZR-75-1 Tam2; conditions: 4-OH-tamoxifen in medium 1 µM; 72 h
Description: as §1

[5] = system: ZR-75-1 Tam1; conditions: 4-OH-tamoxifen in medium 1 µM; 72 h
Description: as §1

[6] = system: MCF-7 Tam1; conditions: 4-OH-tamoxifen in medium 1 µM; 72 h
Description: as §1

[7] = system: T-47D; conditions: 72 h
Description: as §1

[8] = system: BT-474 Tam2; conditions: 4-OH-tamoxifen in medium 1 µM; 72 h
Description: as §1

[9] = system: ZR-75-1; conditions: 72 h
Description: as §1

[10] = system: MCF-7; conditions: 72 h
Description: as §1

[11] = system: T-47D Tam2; conditions: 4-OH-tamoxifen in medium 1 µM; 72 h
Description: as §1

| Compound | viability inhibition at highest dose ([1]; 4-OH-tamoxifen in medium 0 µM) | viability inhibition at highest dose ([1]; 4-OH-tamoxifen in medium 1 µM) | viability inhibition at highest dose [2] | viability inhibition at highest dose [3] | viability inhibition at highest dose [4] | viability inhibition at highest dose [5] | viability inhibition at highest dose [6] | viability inhibition at highest dose ([7]; 4-OH-tamoxifen in medium 0 µM) | viability inhibition at highest dose ([7]; 4-OH-tamoxifen in medium 1 µM) | viability inhibition at highest dose [8] | viability inhibition at highest dose ([9]; 4-OH-tamoxifen in medium 0 µM) | viability inhibition at highest dose ([9]; 4-OH-tamoxifen in medium 1 µM) | viability inhibition at highest dose ([10]; 4-OH-tamoxifen in medium 0 µM) | viability inhibition at highest dose ([10]; 4-OH-tamoxifen in medium 1 µM) | viability inhibition at highest dose [11] |
| --- | --- | --- | --- | --- | --- | --- | --- | --- | --- | --- | --- | --- | --- | --- | --- |
| CC[C@@]1(O)C(=O)OCc2c1cc1n(c2=O)Cc2cc3ccccc3nc2-1 [Camptothecin] (drug 5000 nM) | -9.54 | 0.861 | 49.6 | 4.82 | 57.9 | 54.1 | 49.1 | 61 | 28.7 | -15.3 | 52.9 | 41.1 | 85.5 | 87.2 | 35.6 |
| CN1CCc2c(c3ccccc3n2Cc2ccc(C(=O)NO)cc2)C1 [Tubastatin A] (drug 10000 nM) | 8.77 | 28.9 | 0.672 | 36.4 | 12.3 | 16.1 | 2.15 | 2.46 | 1.6 | 12.3 | 17.4 | 18.8 | 10.2 | 17.2 | 11.4 |
| Cc1cnc(NC(=O)Nc2cc(Br)c(C)cc2OC[C@@H]2CNCCO2)cn1 (drug 1000 nM) | -10.6 | 0.148 | -0.37 | 5 | -1.67 | -1.46 | -4.01 | -9.68 | -8.57 | -6.01 | -7.46 | -6.55 | 26.1 | 16.2 | -5.37 |
| Cc1cccc(-c2nn3c(c2-c2ccnc4ccc(C(N)=O)cc24)CCC3)n1 (drug 1000 nM) | -8.01 | -14 | 8.11 | -3.5 | 0.591 | -1.45 | -5.09 | -10.5 | -3.66 | -0.548 | -10.5 | -14.4 | -2 | 17.5 | -11.8 |
| CCNC(=O)c1noc(-c2cc(C(C)C)c(O)cc2O)c1-c1ccc(CN2CCOCC2)cc1 [NVP-AUY922] (drug 1000 nM) | 48.6 | 78 | 49.8 | 75.2 | 44.4 | 28.5 | 24.1 | 68.8 | 55.5 | 65.7 | 34.2 | 42.6 | 61.6 | 46.1 | 55 |
| CC(O)(CS(=O)(=O)c1ccc(F)cc1)C(=O)Nc1ccc(C#N)c(C(F)(F)F)c1 (stereo not given) [Bicalutamide] (drug 10000 nM) | -18.1 | -8.62 | 5.87 | -10.4 | -0.971 | -0.584 | -6.64 | -16.4 | 10.8 | -6.57 | -10.4 | 1.52 | -0.676 | 5.7 | 14.4 |
| C[C@]12C=CC(=O)C=C1CC[C@@H]1[C@@H]2[C@@H](O)C[C@@]2(C)[C@H]1CC[C@]2(O)C(=O)CO [Prednisolone] (drug 10000 nM) | -0.102 | -6.44 | 2 | -1.37 | 9.43 | -0.584 | 0.119 | -5.27 | -8.96 | -3.77 | -7.97 | 0.573 | 12 | 17.2 | 6.88 |
